Measurements as given in patent US10407414B2, “Mannose derivatives for treating bacterial infections” (priority 2015, dated 2019).

System: bacterial strain LF82 binding to the glycoprotein BSA-(Mannose)3 (FimH antagonists)
Assay: Bacterial Binding Assay (BBA)
Format: cell-based, Escherichia coli
Conditions: read-out: Bacterial Binding Assay IC50 ± SEM
Description: The purpose of the Bacterial Binding Assay (BBA) is to determine the inhibition activity of selective FimH antagonists on the bacterial strain LF82 binding to the glycoprotein BSA-(Mannose)3.
Below is a list of the Materials used to run the BBA are described below. • 1. LB broth: Supplier: Gibco, #10855 • 2. D-PBS: Supplier: Wisent, #311-425-CL • 3. LB agar plates • 4. 96-well black plate (high binding): Supplier: Costar, #3925 • 5. TopSeal™-A adhesive sealing films; Supplier PerkinElmer, #6005185 • 6. Carbonate-bicarbonate buffer pH 9.6 tablets, Supplier: Medicago, #09-8922-24 • 7. Water, Supplier: Gibco, #15230-162 • 8. Bovine serum albumin (BSA): Supplier: Sigma, #A-7888 • 9. (Man)3-BSA (α1-3, α1-6 Mannotriose-BSA, 1 mg), V-Labs, #NGP1336, lot# HGDX37-169-1 • 10. Tween 20: Supplier: Sigma, #P9416 • 11. Bright-Glo Luciferase Assay System: Supplier: Promega, #E2610 • 12. LF82/Luciferase strain: Invasive ability of an Escherichia coli strain isolated from the ileal mucosa of a patient with Crohn's disease. Boudeau J, Glasser A L, Masseret E, Joly B, Darfeuille-Michaud A, Infect Immun. 1999, 67(9), 4499-509
Solutions and buffers used to run the BBA are described below. • 1. 0.04M carbonate-bicarbonate buffer (coating buffer) • 2. 40 μg/mL BSA-(Man)3: Dissolve 1 mg of (Man)3-BSA in 25 mL of water. • 3. 4000 μg/mL BSA • 4. 40 μg/mL BSA • 5. 1 μg/mL BSA-(Man)3: 150 μL of 40 μg/mL BSA-(Man)3+5.85 mL of 40 μg/mL BSA • 6. 0.5 μg/mL BSA-(Man)3 in 0.02M carbonate-bicarbonate buffer. • 7. 20 μg/mL BSA in 0.02M carbonate-bicarbonate buffer • 8. Blocking buffer (2% BSA/DPBS): 1 g of BSA in 50 mL D-PBS • 9. 2× binding buffer (0.2% BSA/D-PBS): 5 mL of blocking buffer+45 mL D-PBS. • 10. Washing buffer (D-PBS/0.01% Tween 20): 10 μL of Tween 20 in 100 mL D-PBS. • 11. 1× Bright-Glo Luciferase substrate: Dilute 1:1 the Bright-Glo Luciferase Assay System with D-PBS
The experimental protocol used in this example to run the BBA is described below.
Overnight culture of LF82/Luciferase strain: Into two Falcon 50 mL tubes, add 20 mL of LB+20 μL of 50 mg/mL Kanamycin and inoculate with a loop from glycerol stock of the LF82/Luciferase strain. Incubate overnight at 37° C. with no shaking.
Glycoprotein coating of 96-well plates: Add 100 μL/well of 0.5-2 μg/mL BSA-(Man)3. 20 μg/mL BSA is used as the control background. Seal plate using an adhesive sealing film and incubate overnight at room temperature. Wash the 96-well plate three times with 150 μL/well of D-PBS, add 170 μL/well of blocking solution and incubate 45 min (minimum) at room temperature.
Preparation of bacterial suspension: Mix the two cultures tubes (40 mL) and perform a 1:10 dilution in LB (900 μl LB+100 μl culture. Measure optical density (OD) of the bacterial cultures. OD1 ˜5×10^8 cells/mL. Centrifuge LF82 culture for 20 min at 3500 rpm at room temperature. Re-suspend bacterial pellet in D-PBS and centrifuge again for 20 min at 3500 rpm. Re-suspend bacterial pellet in D-PBS to obtain a bacterial concentration of 2×10^9 bacteria/mL. Dilute 1/10 in D-PBS to obtain a final bacterial concentration of 2×10^8 bacteria/mL (=107 bacteria/50 μL). Perform 1/10 serial dilutions in LB of each bacterial suspension, plate 10 μL of dilutions on LB agar plates (final dilutions of 10^−7) and incubate overnight at 37° C. and count CFUs to determine the actual bacteria density in the assay.
Bacterial binding assay: Add 147 μL 2× binding buffer to compound plate (containing 3 μL of compound). After blocking step is performed (at least 45 min), wash plates three times with 200 μL/well of D-PBS. With a 100 μL multichannel manual pipettor, add 50 μL/well of compound diluted in 2× binding buffer. With a 100 μL multichannel manual pipettor, add 50 μL/well of bacterial suspension. Agitate at slow speed for 1 min and incubate 40-75 min at room temperature. Wash 5 times with 150 μL/well of washing buffer and then once with D-PBS. Add 100 μL/well of 1× Bright-Glo Luciferase substrate. […]

CC(=O)Nc1cccc(-c2cc(C#C[C@H]3O[C@H](CO)[C@@H](O)[C@H](O)[C@@H]3O)c3[nH]ncc3c2)c1 [Compound 36, N-[3-[7-[2-[(2R,3S,4R,5S,6R)-3,4,5-trihydroxy-6-(hydroxymethyl)tetrahydropyran-2-yl]ethynyl]-1H-indazol-5-yl]phenyl]acetamide]
IC50: 2 ± 0.2 nM

O=[N+]([O-])c1ccc(-c2cc(C#C[C@H]3O[C@H](CO)[C@@H](O)[C@H](O)[C@@H]3O)c3[nH]ncc3c2)cc1 [Compound 28, (2R,3S,4R,5S,6R)-2-(hydroxymethyl)-6-[2-[5-(4-nitrophenyl)-1H-indazol-7-yl]ethynyl]tetrahydropyran-3,4,5-triol]
IC50: 0.6 ± 0.4 nM

COc1ncc(C)cc1-c1cc(C#C[C@H]2O[C@H](CO)[C@@H](O)[C@H](O)[C@@H]2O)c2[nH]ncc2c1 [Compound 78, (2R,3S,4R,5S,6R)-2-(hydroxymethyl)-6-[2-[5-(2-methoxy-5-methyl-3-pyridyl)-1H-indazol-7-yl]ethynyl]tetrahydropyran-3,4,5-triol]
IC50: 2 ± 0.6 nM

O=C(NC1CCCC1)c1cc(C#C[C@H]2O[C@H](CO)[C@@H](O)[C@H](O)[C@@H]2O)c2[nH]ncc2c1 [Compound 64, N-cyclopentyl-7-[2-[(2R,3S,4R,5S,6R)-3,4,5-trihydroxy-6-(hydroxymethyl)tetrahydropyran-2-yl]ethynyl]-1H-indazole-5-carboxamide]
IC50: 50 ± 7 nM

Cc1cc(O)ccc1-c1cc(C#C[C@H]2O[C@H](CO)[C@@H](O)[C@H](O)[C@@H]2O)c2[nH]ncc2c1 [Compound 91, (2R,3S,4R,5S,6R)-2-(hydroxymethyl)-6-[2-[5-(4-hydroxy-2-methyl-phenyl)-1H-indazol-7-yl]ethynyl]tetrahydropyran-3,4,5-triol]
IC50: 0.3 ± 0.03 nM

Cc1cc(C#C[C@H]2O[C@H](CO)[C@@H](O)[C@H](O)[C@@H]2O)c2[nH]ncc2c1 [Compound 2, (2R,3S,4R,5S,6R)-2-(hydroxymethyl)-6-[2-(5-methyl-1H-indazol-7-yl)ethynyl]tetrahydropyran-3,4,5-triol]
IC50: 14 ± 2 nM

CCCCc1cc(C#C[C@H]2O[C@H](CO)[C@@H](O)[C@H](O)[C@@H]2O)c2nn(C)cc2c1 [Compound 23, (2R,3S,4R,5S,6R)-2-[2-(5-butyl-2-methyl-indazol-7-yl)ethynyl]-6-(hydroxymethyl)tetrahydropyran-3,4,5-triol]
IC50: 9 nM

CN(C)c1ccc(-c2cc(C#C[C@H]3O[C@H](CO)[C@@H](O)[C@H](O)[C@@H]3O)c3[nH]ncc3c2)cc1 [Compound 29, (2R,3S,4R,5S,6R)-2-[2-[5-[4-(dimethylamino)phenyl]-1H-indazol-7-yl]ethynyl]-6-(hydroxymethyl)tetrahydropyran-3,4,5-triol]
IC50: 1 ± 0.7 nM

Cc1cc(-c2cc(C#C[C@H]3O[C@H](CO)[C@@H](O)[C@H](O)[C@@H]3O)c3[nH]ncc3c2)ccn1 [Compound 84, (2R,3S,4R,5S,6R)-2-(hydroxymethyl)-6-[2-[5-(2-methyl-4-pyridyl)-1H-indazol-7-yl]ethynyl]tetrahydropyran-3,4,5-triol]
IC50: 0.5 ± 0.2 nM

OC[C@H]1O[C@H](C#Cc2cc(-n3cc(-c4ccccc4)nn3)cc3cn[nH]c23)[C@@H](O)[C@@H](O)[C@@H]1O [Compound 66, (2R,3S,4R,5S,6R)-2-(hydroxymethyl)-6-[2-[5-(4-phenyltriazol-1-yl)-1H-indazol-7-yl]ethynyl]tetrahydropyran-3,4,5-triol]
IC50: 2 nM

OC[C@H]1O[C@H](C#Cc2cc(-c3ccc(OCc4ccccc4)nc3)cc3cn[nH]c23)[C@@H](O)[C@@H](O)[C@@H]1O [Compound 75, (2R,3S,4R,5S,6R)-2-[2-[5-(6-benzyloxy-3-pyridyl)-indazol-7-yl]ethynyl]-6-(hydroxymethyl)tetrahydropyran-3,4,5-triol]
IC50: 2 ± 0.7 nM

N#Cc1cc(C#C[C@H]2O[C@H](CO)[C@@H](O)[C@H](O)[C@@H]2O)c2nc[nH]c2c1 [Compound 5, 7-[2-[(2R,3S,4R,5S,6R)-3,4,5-trihydroxy-6-(hydroxymethyl)tetrahydropyran-2-yl]ethynyl]-3H-benzimidazole-5-carbonitrile]
IC50: 20 ± 2 nM

O=C1Cc2cccc(C#C[C@H]3O[C@H](CO)[C@@H](O)[C@H](O)[C@@H]3O)c2N1 [Compound 11, 7-[2-[(2R,3S,4R,5S,6R)-3,4,5-trihydroxy-6-(hydroxymethyl)tetrahydropyran-2-yl]ethynyl]indolin-2-one]
IC50: 190 ± 75 nM

CS(=O)(=O)c1ccc(-c2cc(C#C[C@H]3O[C@H](CO)[C@@H](O)[C@H](O)[C@@H]3O)c3[nH]ncc3c2)cc1 [Compound 35, (2R,3S,4R,5S,6R)-2-(hydroxymethyl)-6-[2-[5-(4-methylsulfonylphenyl)-1H-indazol-7-yl]ethynyl]tetrahydropyran-3,4,5-triol]
IC50: 0.5 ± 0.1 nM

OC[C@H]1O[C@H](C#Cc2cccc3[nH]ncc23)[C@@H](O)[C@@H](O)[C@@H]1O [Compound 3, (2R,3S,4R,5S,6R)-2-(hydroxymethyl)-6-[2-(1H-indazol-4-yl)ethynyl]tetrahydropyran-3,4,5-triol]
IC50: 110 ± 10 nM

CNC(=O)c1ccc(F)c(-c2cc(C#C[C@H]3O[C@H](CO)[C@@H](O)[C@H](O)[C@@H]3O)c3[nH]ncc3c2)c1 [Compound 90, 4-fluoro-N-methyl-3-[7-[2-[(2R,3S,4R,5S,6R)-3,4,5-trihydroxy-6-(hydroxymethyl)tetrahydropyran-2-yl]ethynyl]-1H-indazol-5-yl]benzamide]
IC50: 3 nM

CCCCc1cc(C#C[C@H]2O[C@H](CO)[C@@H](O)[C@H](O)[C@@H]2O)c2[nH]cnc2c1 [Compound 20, (2R,3S,4R,5S,6R)-2-[2-(6-butyl-3H-benzimidazol-4-yl)ethynyl]-6-(hydroxymethyl)tetrahydropyran-3,4,5-triol]
IC50: 2 ± 0.2 nM

O=C(O)c1cc(C#C[C@H]2O[C@H](CO)[C@@H](O)[C@H](O)[C@@H]2O)c2[nH]ncc2c1 [Compound 58, 7-[2-[(2R,3S,4R,5S,6R)-3,4,5-trihydroxy-6-(hydroxymethyl)tetrahydropyran-2-yl]ethynyl]-1H-indazole-5-carboxylic acid]
IC50: 74 ± 15 nM

CCCCc1cc(C#C[C@H]2O[C@H](CO)[C@@H](O)[C@H](O)[C@@H]2O)c2c(cnn2C)c1 [Compound 22, (2R,3S,4R,5S,6R)-2-[2-(5-butyl-1-methyl-indazol-7-yl)ethynyl]-6-(hydroxymethyl)tetrahydropyran-3,4,5-triol]
IC50: 53 ± 4 nM

O=C(NC1CCCCC1)c1cc(C#C[C@H]2O[C@H](CO)[C@@H](O)[C@H](O)[C@@H]2O)c2[nH]ncc2c1 [Compound 63, N-cyclohexyl-7-[2-[(2R,3S,4R,5S,6R)-3,4,5-trihydroxy-6-(hydroxymethyl)tetrahydropyran-2-yl]ethynyl]-1H-indazole-5-carboxamide]
IC50: 26 ± 1 nM

Cc1cc(F)ccc1-c1cc(C#C[C@H]2O[C@H](CO)[C@@H](O)[C@H](O)[C@@H]2O)c2[nH]ncc2c1 [Compound 94, (2R,3S,4R,5S,6R)-2-[2-[5-(4-fluoro-2-methyl-phenyl)-1H-indazol-7-yl]ethynyl]-6-(hydroxymethyl)tetrahydropyran-3,4,5-triol]
IC50: 0.6 ± 0.3 nM
